Experimental data: ChEMBL document CHEMBL1201862, “PubChem BioAssay data set” (2004)
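All cell lines were grown in 96-well plates and treated with compound for 48 hours. GI50 is the concentration that inhibits growth by half.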 Calls of active or inactive are those of the source. Rule as the data show it: active = GI50 up to about 1.1 µM and inactive = higher.

Assays:
Assay in all cases: NCI-60 cell line screen, 48 h
786-0 = test system: 786-0
A549 = test system: A549
ACHN = test system: ACHN
COLO 205 = test system: COLO 205
DMS-114 = test system: DMS-114
DMS-273 = test system: DMS-273
HCT-15 = test system: HCT-15
HL-60 = test system: HL-60
HT-29 = test system: HT-29
IGROV-1 = test system: IGROV-1
KM-20L2 = test system: KM-20L2
LOX IMVI = test system: LOX IMVI
LXFL 529 = test system: LXFL 529
M14 = test system: M14
M19-MEL = test system: M19-MEL
MOLT-4 = test system: MOLT-4
NCI-H23 = test system: NCI-H23
NCI-H460 = test system: NCI-H460
NCI-H522 = test system: NCI-H522
OVCAR-3 = test system: OVCAR-3
OVCAR-5 = test system: OVCAR-5
OVCAR-8 = test system: OVCAR-8
RPMI-8226 = test system: RPMI-8226
RXF 393 = test system: RXF 393
SK-MEL-28 = test system: SK-MEL-28
SK-MEL-5 = test system: SK-MEL-5
SK-OV-3 = test system: SK-OV-3
SN12C = test system: SN12C
SNB-75 = test system: SNB-75
SR = test system: SR
TK-10 = test system: TK-10
UACC-257 = test system: UACC-257
UACC-62 = test system: UACC-62
A498 = test system: A498
BT-549 = test system: BT-549
CAKI-1 = test system: CAKI-1
CCRF-CEM = test system: CCRF-CEM
DU-145 = test system: DU-145
EKVX = test system: EKVX
HCC 2998 = test system: HCC 2998
HCT-116 = test system: HCT-116
HOP-62 = test system: HOP-62
HOP-92 = test system: HOP-92
Hs-578T = test system: Hs-578T
K562 = test system: K562
KM12 = test system: KM12
MCF7 = test system: MCF7
MDA-MB-231 = test system: MDA-MB-231
MDA-MB-435 = test system: MDA-MB-435
MDA-N = test system: MDA-N
Malme-3M = test system: Malme-3M
NCI-H226 = test system: NCI-H226
NCI/ADR-RES = test system: NCI/ADR-RES
OVCAR-4 = test system: OVCAR-4
PC-3 = test system: PC-3
SF-268 = test system: SF-268
SF-295 = test system: SF-295
SF-539 = test system: SF-539
SK-MEL-2 = test system: SK-MEL-2
SNB-19 = test system: SNB-19
SW-620 = test system: SW-620
T47D = test system: T47D
U-251 = test system: U-251
UO-31 = test system: UO-31

In the case of `CC1=C[P+](Cc2ccccc2)(c2ccccc2)CC1` (configuration not stated), the GI50 (786-0) is reported as > 100 µM (inactive), the GI50 (A549) is reported as > 100 µM (inactive) and the GI50 (ACHN) is reported as > 100 µM (inactive). The GI50 (COLO 205) was 41.5 µM (inactive), the GI50 (DMS-114) was 35.2 µM (inactive) and the GI50 (DMS-273) was > 100 µM (inactive). For the same compound, the GI50 (HCT-15) was 88.1 µM, the GI50 (HL-60) was 36.3 µM (inactive) and the GI50 (HT-29) was 77.3 µM (inactive). The GI50 (IGROV-1) was 96.8 µM (inactive), the GI50 (KM-20L2) was 94.2 µM (inactive) and the GI50 (LOX IMVI) was > 100 µM (inactive). For the same compound, the GI50 (LXFL 529) was 23.3 µM (inactive), the GI50 (M14) was 77.6 µM (inactive) and the GI50 (M19-MEL) was 29.9 µM (inactive). The GI50 (MOLT-4) was > 100 µM (inactive), the GI50 (NCI-H23) was > 100 µM (inactive) and the GI50 (NCI-H460) was > 100 µM (inactive). The GI50 (NCI-H522) was 65.2 µM (inactive), the GI50 (OVCAR-3) was 47.8 µM (inactive) and the GI50 (OVCAR-5) was > 100 µM (inactive). For the same compound, the GI50 (OVCAR-8) was > 100 µM (inactive), the GI50 (RPMI-8226) was 28.6 µM (inactive) and the GI50 (RXF 393) was > 100 µM (inactive). For the same compound, the GI50 (SK-MEL-28) was 81.1 µM (inactive), the GI50 (SK-MEL-5) was 27 µM (inactive) and the GI50 (SK-OV-3) was > 100 µM (inactive). For the same compound, the GI50 (SN12C) was > 100 µM (inactive), the GI50 (SNB-75) was > 100 µM (inactive) and the GI50 (SR) was 57 µM (inactive). The GI50 (TK-10) was 98.9 µM (inactive), the GI50 (UACC-257) was 21.5 µM (inactive) and the GI50 (UACC-62) was 66.5 µM (inactive).

In the case of `O=C(N/N=C\c1cccc2ccccc12)Nc1ccc([N+](=O)[O-])cc1`, the GI50 (786-0) is reported as 3.54 µM (inactive), the GI50 (A498) is reported as 2.66 µM (inactive) and the GI50 (A549) is reported as 9.71 µM (inactive). For the same compound, the GI50 (ACHN) was 11.6 µM (inactive), the GI50 (BT-549) was 20 µM (inactive) and the GI50 (CAKI-1) was 42.1 µM (inactive). The GI50 (CCRF-CEM) was 24.3 µM (inactive), the GI50 (COLO 205) was 17.1 µM (inactive) and the GI50 (DU-145) was 15.3 µM (inactive). The GI50 (EKVX) was > 39.4 µM (inactive), the GI50 (HCC 2998) was 15.8 µM (inactive) and the GI50 (HCT-116) was 6.28 µM (inactive). The GI50 (HCT-15) was 13.9 µM, the GI50 (HL-60) was > 40.6 µM (inactive) and the GI50 (HOP-62) was 17.9 µM (inactive). The GI50 (HOP-92) was 6.67 µM (inactive), the GI50 (HT-29) was 16.8 µM (inactive) and the GI50 (Hs-578T) was 25.4 µM (inactive). The GI50 (IGROV-1) was 18.4 µM (inactive), the GI50 (K562) was 5.58 µM (inactive) and the GI50 (KM12) was 10.9 µM (inactive). For the same compound, the GI50 (LOX IMVI) was 21.6 µM (inactive), the GI50 (M14) was 28.1 µM (inactive) and the GI50 (MCF7) was 9.51 µM (inactive). The GI50 (MDA-MB-231) was 30.7 µM (inactive), the GI50 (MDA-MB-435) was 18.9 µM (inactive) and the GI50 (MDA-N) was 19.1 µM (inactive). For the same compound, the GI50 (MOLT-4) was 20.8 µM (inactive), the GI50 (Malme-3M) was 14.2 µM (inactive) and the GI50 (NCI-H226) was 23.3 µM (inactive). For the same compound, the GI50 (NCI-H23) was 8.89 µM (inactive), the GI50 (NCI-H460) was 10.9 µM (inactive) and the GI50 (NCI-H522) was 5.66 µM (inactive). For the same compound, the GI50 (NCI/ADR-RES) was 13.9 µM (inactive), the GI50 (OVCAR-3) was 7.74 µM (inactive) and the GI50 (OVCAR-4) was 8.04 µM (inactive). The GI50 (OVCAR-5) was 19.7 µM (inactive), the GI50 (OVCAR-8) was 7.64 µM (inactive) and the GI50 (PC-3) was 6.95 µM (inactive). The GI50 (RPMI-8226) was > 19.7 µM (inactive), the GI50 (RXF 393) was 7.13 µM (inactive) and the GI50 (SF-268) was 19.5 µM (inactive). For the same compound, the GI50 (SF-295) was 13.7 µM (inactive), the GI50 (SF-539) was 8.05 µM (inactive) and the GI50 (SK-MEL-28) was 27.7 µM (inactive). For the same compound, the GI50 (SK-MEL-2) was 20 µM (inactive), the GI50 (SK-MEL-5) was 22.6 µM (inactive) and the GI50 (SK-OV-3) was 24.6 µM (inactive). The GI50 (SN12C) was 18.5 µM (inactive), the GI50 (SNB-19) was 21.4 µM (inactive) and the GI50 (SNB-75) was 38.9 µM (inactive). For the same compound, the GI50 (SR) was > 27.6 µM (inactive), the GI50 (SW-620) was 29.6 µM (inactive) and the GI50 (T47D) was 4.28 µM (inactive). The GI50 (TK-10) was 4.94 µM (inactive), the GI50 (U-251) was 17.1 µM (inactive) and the GI50 (UACC-257) was 25.1 µM (inactive). For the same compound, the GI50 (UACC-62) was 18.1 µM (inactive) and the GI50 (UO-31) was 12.8 µM (inactive).
